Measurements: patent US9078440B2, “6-(2-aminophenyl)picolinates and their use as herbicides” (BAYER INTELLECTUAL PROPERTY GMBH, priority 2010, dated 2015)

Columns and labels:
Format in all cases: in vivo
Amaranthus retroflexus [1] = experiment: Post-emergence herbicidal effect, greenhouse pot test; conditions: 1.28 kg or less active substance per hectare, scored visually after about 3 weeks
Experimental: (§1) Post-emergence herbicidal effect and crop plant compatibility
(§2) Seeds of monocotyledonous and dicotyledonous weed and crop plants are placed in sandy loam in wood-fibre pots, covered with soil and cultivated in a greenhouse under good growth conditions. 2 to 3 weeks after sowing, the test plants are treated at the one-leaf stage. The inventive compounds, formulated in the form of wettable powders (WP) or as emulsion concentrates (EC), are then sprayed onto the green parts of the plants as an aqueous suspension or emulsion at a water application rate of 600 to 800 I/ha (converted) with addition of 0.2% by weight of wetting agent. After the test plants have been left to stand in the greenhouse under optimal growth conditions for about 3 weeks, the action of the formulations is scored visually in comparison to untreated controls (herbicidal action in percent (%): 100% action=the plants have died, 0% action=like control plants).

Matricaria inodora = experiment: as above; conditions: 1.28 kg or less active substance per hectare, scored visually after about 3 weeks
Experimental: as §1, §2

[2] = test system: Pharbitis (Ipomoea) purpurea; experiment: as above; conditions: 1.28 kg or less active substance per hectare, scored visually after about 3 weeks
Experimental: as §1, §2

[3] = test system: Polygonum (Fallopia) convolvulus; experiment: as above; conditions: 1.28 kg or less active substance per hectare, scored visually after about 3 weeks
Experimental: as §1, §2

Stellaria media = experiment: as above; conditions: 1.28 kg or less active substance per hectare, scored visually after about 3 weeks
Experimental: as §1, §2

Veronica persica = experiment: as above; conditions: 1.28 kg or less active substance per hectare, scored visually after about 3 weeks
Experimental: as §1, §2

Viola tricolor [4] = experiment: as above; conditions: 1.28 kg or less active substance per hectare, scored visually after about 3 weeks
Experimental: as §1, §2

Amaranthus retroflexus [5] = experiment: Pre-emergence herbicidal effect, greenhouse pot test; conditions: 1.28 kg of active substance per hectare, assessed visually after 3 weeks
Source text: (§3) Pre-emergence Herbicidal Effect and Crop Plant Compatibility
(§4) Seeds of monocotyledonous and dicotyledonous weed plants and crop plants are placed in wood-fibre pots in sandy loam and covered with soil. The inventive compounds, formulated in the form of wettable powders (WP) or as emulsion concentrates (EC), are then applied to the surface of the covering soil as an aqueous suspension or emulsion at a water application rate of 600 to 800 I/ha (converted) with addition of 0.2% wetting agent. After the treatment, the pots are placed in a greenhouse and kept under good growth conditions for the test plants. The damage to the test plants is assessed visually after a test period of 3 weeks by comparison with untreated controls (herbicidal activity in percent (%): 100% action=the plants have died, 0% action=like control plants).

[6] = test system: Polygonum (Fallopia) convolvulus; experiment: as above; conditions: 1.28 kg of active substance per hectare, assessed visually after 3 weeks
Source text: as §3, §4

Viola tricolor [7] = experiment: as above; conditions: 1.28 kg of active substance per hectare, assessed visually after 3 weeks
Source text: as §3, §4

Measured: herbicidal action

COC(=O)c1nc(-c2ccc(Cl)cc2N)cc(N)c1Cl [compound 58, methyl 4-amino-6-(2-amino-4-chlorophenyl)-3-chloropyridine-2-carboxylate]
at least 90%: all assays above
